Tests used:
[1] = Toxic deaths in nontumored mice treated in parallel (colon 38 experiment); format: in vivo
Description: × 100; in parenthesis, number of over 100 day survivors/number of
mice in a group of nontumored mice treated in parallel with the
tumorbearing mice and observed for 100 days.

colon 38 adenocarcinoma = assay: Activity against advanced colon carcinoma C38 tumor; format: in vivo, CDF1 mice; settings: for % inhibn of tumor: tumors measured day 21
Procedure: In view of favorable activity agianst colon 26 carcinoma, further experiments using the active analogues were carried out on the advanced colon adenocarcinomas of mouse colon 38. […] The superiority of RAD III and SAD over AMD in inhibiting colon 38 carcinoma is evident from the data of both tumor weight inhibition and increases in survival time of the treated over nontreated mice and the larger number of long-term survivors produced by these analogues.
^a CDF1 mice were injected sc with colon 38 adenocarcinoma
fragments (70 mg) and treated with drugs with iv injections on day 1, 5,
and 9 following tumor imoplantation on day 0. ^b [100 (tumor weight o
treated mice/tumor weight of untreated mice)] × 100; data pooled
from two experiments, tumors measured on day 21 after implantation ^c
(Median survival time of treated mice/median survival of untreated mice)
× 100; in parenthesis, number of over 100 day survivors/number of […]

mammary MX-1 = assay: Treatment of mammary MX-1 tumor; format: in vivo; settings: at the doses tested
[2] = Maximum tolerated dose (LD10) in tumor-free male mice; settings: ip days 1, 5, 9; deaths observed during 21 days; from plot of log dose vs percent mortality
Procedure: The analogues were also tested in tumor-free male mice for their LD10 values (Table XIV). The animals were given a broad range of doses (ip) on days 1, 5, and 9. The maximum tolerated doses of AMD and the analogues that caused death in only 10% of the tested animals in 21 days (i.e., LD10) were recorded as MTD. […] On the basis of these values, the calculated therapeutic index values of SAD is 96, and those of RAD I, II, and III are 60, 67, and 70, respectively.
control in P388 tumor bearing mice. ^c MTD (maximum tolerated dose) i
the lethal dose (milligram/kilogram) for 10% normal BDF1 male mice
days). Values were calculated from a plot of log dose vs percent

B16 melanoma = assay: In vivo antitumor activity against B16 melanoma; design: species or system BDF1 mice
Procedure: ^a 0.2 mL of 1:5 (weight/volume) brei of B16 melanoma implanted
ip on day 0 in groups of nine BDF1 mice. Drugs administered ip^b
MST (range), median survival time in days (range of days for death of
individual animal). ^c % ILS (surv), percent increase in life span
(survivors on day 65/total injected).

[3] = Metabolism in tumor cell homogenate (T); format: in vitro ADME, murine; settings: P388 homogenate (T), 37° C., 16 h
Procedure: (§1) In this respect, actinomycin is only about 30% as efficient as its synthetic analogues, RAD III (3c) and SAD (2) (Table II). Metabolic Studies, Metabolism in the Presence of Tumor Cell Homogenates and Rat Liver Microsomes. The cell homogenates (P388 cells were sonicated and were incubated at 37° C. with analogues for 16 h. Rat microsomes were harvested from phenobarbital-induced rats by standard procedure. Incubations were carried out for 6 h in the presence of a NADPH-generating system, i.e., glucose-6-phosphate dehydrogenase and glucose 6-phosphate. The metabolites and their water-soluble conjugates were isolated and identified with the use of tritiated analogues.
(§2) It was observed that the RAD analogues are metabolized to SAD (2) with the loss of oxazole ring. […] In tumor cells, a larger fraction of SAD (2) (30-50%) remains unmetabolized. SAD is found to form glucuronide and sulfate conjugates only in tumor cells. […] Isolation of SAD from RAD analogues is a very important step, because SAD is found to be a potent and effective antitumor agent in several murine tumor systems (Tables V-XII).

[4] = test system: P388/ADR (adriamycin resistant) leukemia; assay: Antitumor activity in vivo, P388/ADR leukemia; design: species or system mice; settings: at optimal dose, ip days 1, 5, 9
Procedure: The analogues were also tested against P388/ADR murine leukemia following the standard protocol (Table VI).
ILS = percent increase in life span.

lung LX-1 = assay: Treatment of lung LX-1 tumor; format: in vivo; settings: at the doses tested
[5] = test system: CX-1 human colon adenocarcinoma; assay: Chemotherapy of human colon CX-1 tumor heterotransplanted in nude mice; format: in vivo, human tumor in athymic mice; settings: for % T/C, optimal: TST 15, observed day 22
Procedure: Tables XI and XII show the effectiveness of SAD (2) and RAD (3b and 3c) against CX-1 human colon adenocarcinoma heterotransplanted into athymic mice, with three iv treatments with drugs on a weekly schedule starting on the 15th day of tumor transplant. AMD and the analogues were tested at doses of 45 and 60 ug/kg.
^a -, % T/C high than 50%; ±, % T/C close to 50%; +, % T/C from 50
to 35%; ++, % T/C from 35% to 20%; +++, % T/C lower than 20%; ++++,
regression of the tumor to a volume lower than 10% of the volume at the
start of treatment. ^b Statistically significant as evaluated by the
^a Intravenous treatment, once a week for three weeks; eight mice per
group. ^b TST; number of days between tumor transplant and starting o
treatment. ^c Numbers in parentheses; day of observation after the […]

rat liver microsomes = assay: Metabolism in rat liver microsomes (M); format: in vitro ADME; settings: 6 h, NADPH-generating system
Procedure: as §1, §2

[6] = dose 0.30 mg/kg iv days 1, 5, 9
[7] = dose 0.60 mg/kg iv days 1, 5, 9
[8] = dose 1.20 mg/kg iv days 1, 5, 9
[9] = at optimal dose, ip days 1, 5, 9

## Cc1c2oc3c(C)c4oc(CC(=O)NCCCCN)nc4c(C(=O)N[C@@H]4C(=O)N[C@H](C(C)C)C(=O)N5CCC[C@H]5C(=O)N(C)CC(=O)N(C)[C@@H](C(C)C)C(=O)O[C@@H]4C)c3nc-2c(C(=O)N[C@@H]2C(=O)N[C@H](C(C)C)C(=O)N3CCC[C@H]3C(=O)N(C)CC(=O)N(C)[C@@H](C(C)C)C(=O)O[C@@H]2C)c(N)c1=O [RAD III (3c)]
[1]; [6]
  toxic deaths: 0/9
[1]; [7]
  toxic deaths: 4/9
[1]; [8]
  toxic deaths: 2/9
Colon 38 adenocarcinoma; [6]
  % T/C (median survival time): 170%
  over 100 day survivors/number of mice: 1/9
  % inhibn of tumor: 80%
Colon 38 adenocarcinoma; [7]
  % T/C (median survival time): 250%
  over 100 day survivors/number of mice: 6/9
  % inhibn of tumor: 93%
Colon 38 adenocarcinoma; [8]
  % T/C (median survival time): 231%
  over 100 day survivors/number of mice: 3/9
  % inhibn of tumor: 94%
Colon 38 adenocarcinoma; every 4 days, three times, from day 1 after implant
  activity relative to AMD at equivalent doses: about 150%
Mammary MX-1
  response of mammary MX-1 to treatment: practically ineffective
[2]
  MTD (maximum tolerated dose), lethal dose for 10% of normal mice (LD10): 3.50 milligram/kilogram
B16 melanoma; [9]
  % ILS: 114%
  survivors on day 65/total injected: 6/9
B16 melanoma; at optimal dose, ip days 1, 5, 9, range of days of death
  MST (range), median survival time: 62(53-61) days
B16 melanoma; ip, days 1, 5, 9
  optimal dose: 300 μg/kg per inj
[3]
  percent isolated: tissue bound: 5.0 ± 1.0%
  percent isolated: unidentified metabolite: 5.0 ± 2.0%
  percent metabolite isolated: SAD: 20.0 ± 2.0%
  percent metabolite isolated: SAD-glucuronide and/or sulfate: 40.0 ± 5.5%
  percent metabolite isolated: protein conjugates: 8.0 ± 2.0%
  percent unconverted drug: 20.0 ± 2.5%
[4]
  tumor free survivors/total on day 60: 2/8
Lung LX-1
  response of lung LX-1 to treatment: practically ineffective
[5]; dose 45 μg/kg iv once a week for three weeks
  % T/C, optimal: 5%
[5]; dose 60 μg/kg iv once a week for three weeks
  % T/C, optimal: 3%
[5]; three iv treatments weekly from 15th day of transplant, at the doses tested
  response of CX-1 tumor to treatment (in words): responded remarkably well to the treatment of RAD III at doses of 45 and 60 ug/kg
Rat liver microsomes
  percent isolated: tissue bound: 5.0 ± 0.5%
  percent isolated: unidentified metabolite: 8.0 ± 1.0%
  percent metabolite isolated: SAD: 65.0 ± 5.5%
  percent metabolite isolated: SAD-glucuronide and/or sulfate: nil
  percent metabolite isolated: protein conjugates: 10.0 ± 10%
  percent unconverted drug: 10.0 ± 1.0%

Source: patent US4966962A, “Reverse analogue of actinomycin D” (Trustees of Boston University, priority 1988, dated 1990)
